Experiment [1] deals with MPTP-induced mouse. Kind of experiment: Concentration of dopamine in striatum of MPTP-induced mouse (HPLC). The conditions noted are these: 1 mg/kg oral once a day, FIG. 4. The class given is in vivo, C57BL/6 mice. The method, then:
7 days after the compounds described above are respectively administered to the three groups, the mice in each group were sacrificed by cervical dislocation and brain tissues were immediately taken out of the mice. Striatum was collected from the brain tissue, 0.5 ml of a HPLC assay diluent (0.1 M HClO4, 0.1 mM EDTA) was added to the striatum, and a tissue homogenate was then prepared using an ultrasonic processor. The homogenate was centrifuged at 12,000 rpm for 15 minutes, and the supernatant was filtered with a nitrocellulose filter (0.2 um, Millipore). For HPLC analysis, HR-80 column (80 mm×4.6 mm, particle size: 3 μm ESA, USA) was used, the flow rate of a mobile phase (0.07 M monobasic sodium phosphate, 1 mM sodium octasulfonic acid, 0.1 uM EDTA, 5% acetonitrile, pH 3.2) was maintained at 0.7 ml/min, and the electrode potential of an electrochemical detector (Coulochem III, ESA, USA) was at E1=−100 mV, E2=350 mV.

The subject of another experiment is caspase 3. Kind of experiment: Activity of caspase 3/7 (Apo-ONE) in MPP+-treated cells. The class given is cell-based, human. To be noted: 2 mM MPP+, 24 hours; CBI 1, 5, 10 and 50 nM, rasagiline 50 nM; FIG. 18.
Experiment [2] concerns MAO-B-deficient human neuroblastoma SH-SY5Y cells. Kind of experiment: Reactive oxygen species (DCF-DA staining) in MPP+-treated cells. The experiment is classed as cell-based. To be noted: 2 mM MPP+, 50 nM, 24 hours; FIGS. 19 and 20. On the procedure:
In this embodiment, MAO-B-deficient human neuroblastoma SH-SY5Y cells (Korean Cell Line Bank) were used. The cells were cultured in a DMEM medium at 37° C. with 5% of CO2 for 24 hours. The cultured cells were divided into three groups, 2 mM of MPP^+ was added to each group, one of the three groups was treated with 50 nM of CBI, one of the other two groups was treated with 50 nM of rasagiline, and the three groups were further incubated with 5% of CO2 at 37° C. for 24 hours. The group with only MPP^+ added thereto was incubated under the same conditions as described above. Subsequently, the cells were stained with 2,7-dichlorofluorescein diacetate (DCF-DA), which is a fluorescence dye capable of detecting reactive oxygen species, and then observed using a confocal microscope (Nikon Co., Japan).

In experiment [3] the test system is MPTP-induced mouse. Kind of experiment: Number of neurites and spines per neuron in MPTP-induced mouse (confocal microscopy). The experiment is classed as in vivo, C57BL/6 mice. To be noted: 1 mg/kg oral once a day for 10 days after MPTP. The method, then: To observe whether or not the number of neurites and spines per neuron in the tissues was increased, a coronal slice with a thickness of 200 um containing striatum or substantia nigra was prepared using a vibratome. Each group of mice was sacrificed, and the brain was taken out of each group and then placed in a cold, highly-concentrated sucrose dissection buffer bubbled with carbogen (5% CO2 and 95% O2) (87 mM NaCl, 2.5 mM KCl, 1.25 mM NaH2PO4, 25 mM NaHCO3, 1 mM CaCl2, 3 mM MgCl2, 10 mM dextrose, and 75 mM sucrose). While the vibratome was performed, a slicing chamber was filled with the uniformly carbogenated sucrose dissection buffer. After the slicing process was terminated, all the slices were washed with PBS, and fixed with 4% paraformaldehyde in a PBS solution. The fixed brain slices were placed on a 1.5% agarose (in PBS) block. Images thereof were obtained using a confocal microscope (ZEISS LSM 510 META) by using Zeiss LSM image browser software (Carl Zeiss Microimaging, Germany, version 4.0 SP2).

Experimental for caspase 3: SH-SY5Y cells were incubated in a 96-well plate at a concentration of 5×10^5 cells/well under the same conditions as described above, the cells were treated with 2 mM of MPP^+ and CBI (1, 5, 10 and 50 nM) or rasagiline (50 nM), and the resulting cells were incubated for 24 hours. Subsequently, 100 μl of Apo-ONE caspase 3/7 reagent (Promega, G7790) was added thereto and mixed therewith, and the resultant was further incubated for 4 hours. After the incubation was terminated, fluorescence was measured at an excitation wavelength of 495 nm and an emission wavelength of 521 nm by using a fluorescence plate reader (GeminiXPS, Molecular Devices).

As for `C#CCN[C@@H]1CCc2ccccc21` [rasagiline, R(+)-N-propargyl-1-aminoindan, reference compound], in the experiment with MPTP-induced mouse [1], the “restoration of the concentration of dopamine in striatum compared with normal mice” value is given as “about 40%”. Besides, the “activity of caspase 3” value in the experiment on caspase 3 is on record as “reduced”. Further, the reactive oxygen species result in experiment [2] is “significantly decreased”. Besides, the number of neurites entry in the experiment on MPTP-induced mouse [3] (FIG. 23) was “did not exhibit statistical significance”. Further, the number of spines result in the experiment on MPTP-induced mouse [3] (FIG. 24) is “an increase in the number of spines was observed”.

Values taken from patent publication US9290464B2 (priority 2010, dated 2016).
